Measurements: US20020016351A1, “New crystals of celecoxib” (priority 2000, published 2002)

Assays:
[1] = bulk density of the crystals; type: physicochemical; conditions: typical and characteristic density of the celecoxib crystals
Excerpt: (§1) One of the main disadvantages of the needle-like crystals of Form II mentioned in WO 00/32189 is their low bulk density. It was found, that the crystals of the invention's Form I are distinctly denser in comparison to the crystals of Form II prepared according to the methods as given in International Applications WO 95/15316 and WO 96/37476. The following densities are typical and characteristic for the crystals of Form I and II, respectively: […]

[2] = tap density of the crystals; type: physicochemical; conditions: typical and characteristic density of the celecoxib crystals
Excerpt: as §1

Structure (SMILES) | bulk density [1] | tap density [2]
Cc1ccc(-c2cc(C(F)(F)F)nn2-c2ccc(S(N)(=O)=O)cc2)cc1 [Form II, 4-[5-(4-methylphenyl)-3-(trifluoromethyl)-1H-pyrazol-1-yl]benzenesulfonamide] | about 0.130 g/ml | about 0.180 g/ml
Cc1ccc(-c2cc(C(F)(F)F)nn2-c2ccc(S(N)(=O)=O)cc2)cc1 [Form I, 4-[5-(4-methylphenyl)-3-(trifluoromethyl)-1H-pyrazol-1-yl]benzenesulfonamide] | ≧about 0.270 g/ml | ≧about 0.360 g/ml
